Test results taken from US4684664A, “Derivatives of β-(4-isocyano-1,2,3,4-diepoxycyclopentyl) acrylic acid” (Kureha Kagaku Kogyo Kabushiki Kaisha, priority 1984, dated 1987).
In brackets after ≈: the same amount, converted by molar mass.

Experiments:
Type in all cases: cell-based
[1] = tested on: Salmonella typhimurium IID 971; assay: Antibacterial activity, agar-dilution MIC, organism No. 8; conditions: Salmonella enterica, read-out: Minimum Inhibitory Concentration
Procedure, shortened: (§1)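 Minimum inhibitory concentration determined on solid bouillon agar by the agar-dilution technique, with values stated as μg/ml.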

[2] = tested on: Salmonella shottmuelleri 8006; assay: Antibacterial activity, agar-dilution MIC, organism No. 11; conditions: Salmonella, 8006, read-out: Minimum Inhibitory Concentration
Procedure, shortened: as §1

[3] = tested on: Streptococcus faecium IFO 3826; assay: Antibacterial activity, agar-dilution MIC, organism No. 27; conditions: Enterococcus faecium, IFO3826, read-out: Minimum Inhibitory Concentration
Procedure, shortened: as §1

[4] = tested on: Bacillus subtilis ATCC 6633; assay: Antibacterial activity, agar-dilution MIC, organism No. 14; conditions: Bacillus subtilis, ATCC6633, read-out: Minimum Inhibitory Concentration
Procedure, shortened: as §1

[5] = tested on: Escherichia coli NIHJ-JC-2; assay: Antibacterial activity, agar-dilution MIC, organism No. 5; conditions: Escherichia coli, NIHJJC2, read-out: Minimum Inhibitory Concentration
Procedure, shortened: as §1

[6] = tested on: Proteus rettgeri IFO 3850; assay: Antibacterial activity, agar-dilution MIC, organism No. 22; conditions: Providencia rettgeri, IFO3850, read-out: Minimum Inhibitory Concentration
Procedure, shortened: as §1

[7] = tested on: Pseudomonas aeruginosa NCTC 10490; assay: Antibacterial activity, agar-dilution MIC, organism No. 16; conditions: Pseudomonas aeruginosa, NCTC10490, read-out: Minimum Inhibitory Concentration
Procedure, shortened: as §1

[8] = tested on: Salmonella paratyphi-A 1015; assay: Antibacterial activity, agar-dilution MIC, organism No. 10; conditions: Salmonella enterica, PARATYPHI, read-out: Minimum Inhibitory Concentration
Procedure, shortened: as §1

Proteus vulgaris HX-19 = assay: Antibacterial activity, agar-dilution MIC, organism No. 21; conditions: Proteus vulgaris, HX19, read-out: Minimum Inhibitory Concentration
Procedure, shortened: as §1

Salmonella typhi 901 = assay: Antibacterial activity, agar-dilution MIC, organism No. 9; conditions: Salmonella enterica, TYPHI, read-out: Minimum Inhibitory Concentration
Procedure, shortened: as §1

[9] = tested on: Micrococcus luteus ATCC 9341; assay: Antibacterial activity, agar-dilution MIC, organism No. 25; conditions: Micrococcus luteus, ATCC9341, read-out: Minimum Inhibitory Concentration
Procedure, shortened: as §1

[10] = tested on: Aspergillus niger IFO 6342; assay: Antifungal activity, agar-dilution MIC, organism No. 30; conditions: Aspergillus niger, IFO6342, read-out: Minimum Inhibitory Concentration
Procedure, shortened: as §1

[11] = tested on: Candida albicans IAM 4905; assay: Antifungal activity, agar-dilution MIC, organism No. 29; conditions: Candida albicans, IAM4905, read-out: Minimum Inhibitory Concentration
Procedure, shortened: as §1

[12] = tested on: Enterobacter aerogenes ATCC 13048; assay: Antibacterial activity, agar-dilution MIC, organism No. 23; conditions: Klebsiella aerogenes, ATCC13048, read-out: Minimum Inhibitory Concentration
Procedure, shortened: as §1

[13] = tested on: Klebsiella pneumoniae PCI-602; assay: Antibacterial activity, agar-dilution MIC, organism No. 7; conditions: Klebsiella pneumoniae, PCI602, read-out: Minimum Inhibitory Concentration
Procedure, shortened: as §1

[14] = tested on: Pseudomonas aeruginosa PAO 1; assay: Antibacterial activity, agar-dilution MIC, organism No. 17; conditions: Pseudomonas aeruginosa, PAO1, read-out: Minimum Inhibitory Concentration
Procedure, shortened: as §1

[15] = tested on: Staphylococcus aureus FDA 209PJc-1; assay: Antibacterial activity, agar-dilution MIC, organism No. 1; conditions: Staphylococcus aureus, FDA209PJC1, read-out: Minimum Inhibitory Concentration
Procedure, shortened: as §1

[16] = tested on: Pseudomonas aeruginosa IFO 3445; assay: Antibacterial activity, agar-dilution MIC, organism No. 15; conditions: Pseudomonas aeruginosa, IFO3445, read-out: Minimum Inhibitory Concentration
Procedure, shortened: as §1

Enterobacter cloacae 963 = assay: Antibacterial activity, agar-dilution MIC, organism No. 24; conditions: Enterobacter cloacae, 963, read-out: Minimum Inhibitory Concentration
Procedure, shortened: as §1

[17] = tested on: Serratia marcescens IAM 1184; assay: Antibacterial activity, agar-dilution MIC, organism No. 13; conditions: Serratia marcescens, IAM1184, read-out: Minimum Inhibitory Concentration
Description: Agar-dilution method was used for determination of the antibacterial activity and antifungal activity while using bouillon-agar culture medium, and the minimum inhibitory concentration of the specimen was expressed by μg/ml of the culture medium.

[18] = tested on: Proteus mirabilis IFO 3849; assay: Antibacterial activity, agar-dilution MIC, organism No. 19; conditions: Proteus mirabilis, IFO3849, read-out: Minimum Inhibitory Concentration
Procedure, shortened: as §1

[19] = tested on: Staphylococcus aureus MS 353; assay: Antibacterial activity, agar-dilution MIC, organism No. 3; conditions: Staphylococcus aureus, MS353, read-out: Minimum Inhibitory Concentration
Procedure, shortened: as §1

[20] = tested on: Salmonella enteritidis G 14; assay: Antibacterial activity, agar-dilution MIC, organism No. 12; conditions: Salmonella enterica, ENTERITIDIS, read-out: Minimum Inhibitory Concentration
Procedure, shortened: as §1

Proteus vulgaris OX-19 = assay: Antibacterial activity, agar-dilution MIC, organism No. 20; conditions: Proteus vulgaris, OX19, read-out: Minimum Inhibitory Concentration
Procedure, shortened: as §1

[21] = tested on: Escherichia coli K12 C600 IAM 1264; assay: Antibacterial activity, agar-dilution MIC, organism No. 6; conditions: Escherichia coli, IAM1264, read-out: Minimum Inhibitory Concentration
Procedure, shortened: as §1

[22] = tested on: Staphylococcus aureus Terajima; assay: Antibacterial activity, agar-dilution MIC, organism No. 2; conditions: Staphylococcus aureus, read-out: Minimum Inhibitory Concentration
Procedure, shortened: as §1

[23] = tested on: Proteus morganii IFO 3848; assay: Antibacterial activity, agar-dilution MIC, organism No. 18; conditions: Morganella morganii, IFO3848, read-out: Minimum Inhibitory Concentration
Procedure, shortened: as §1

[24] = tested on: Streptococcus pyogenes Cook; assay: Antibacterial activity, agar-dilution MIC, organism No. 4; conditions: Streptococcus pyogenes, read-out: Minimum Inhibitory Concentration
Procedure, shortened: as §1

[25] = tested on: Streptococcus pyogenes IFO 3340; assay: Antibacterial activity, agar-dilution MIC, organism No. 26; conditions: Streptococcus pyogenes, IFO3340, read-out: Minimum Inhibitory Concentration
Procedure, shortened: as §1

Compound | MIC [1] | MIC [2] | MIC [3] | MIC [4] | MIC [5] | MIC [6] | MIC [7] | MIC [8] | MIC (Proteus vulgaris HX-19) | MIC (Salmonella typhi 901) | MIC [9] | MIC [10] | MIC [11] | MIC [12] | MIC [13] | MIC [14] | MIC [15] | MIC [16] | MIC (Enterobacter cloacae 963) | MIC [17] | also measured
[C-]#[N+]C12CC3(/C=C/C(=O)Nc4ccc(O)cc4)OC3C1O2 (stereo not shown) [compound 56] | 12.5 µg/mL (≈ 44 µM) | 3.13 µg/mL (≈ 11 µM) | 50 µg/mL (≈ 176 µM) | 12.5 µg/mL (≈ 44 µM) | 25 µg/mL (≈ 87.9 µM) | 3.13 µg/mL (≈ 11 µM) | > 200 µg/mL | 3.13 µg/mL (≈ 11 µM) | 1.56 µg/mL (≈ 5.49 µM) | 6.25 µg/mL (≈ 22 µM) | 0.78 µg/mL (≈ 2.74 µM) | 50 µg/mL (≈ 176 µM) | 25 µg/mL (≈ 87.9 µM) | > 200 µg/mL | 1.56 µg/mL (≈ 5.49 µM) | > 200 µg/mL | 1.56 µg/mL (≈ 5.49 µM) | > 200 µg/mL | 200 µg/mL (≈ 704 µM) | 50 µg/mL (≈ 176 µM) | MIC [18]: 12.5 µg/mL (≈ 44 µM); MIC [19]: 1.56 µg/mL (≈ 5.49 µM); MIC [20]: 6.25 µg/mL (≈ 22 µM); MIC (Proteus vulgaris OX-19): 3.13 µg/mL (≈ 11 µM); MIC [21]: 25 µg/mL (≈ 87.9 µM); MIC [22]: 6.25 µg/mL (≈ 22 µM); MIC [23]: 1.56 µg/mL (≈ 5.49 µM); MIC [24]: 25 µg/mL (≈ 87.9 µM); MIC [25]: 3.13 µg/mL (≈ 11 µM)
[C-]#[N+]C12CC3(/C=C/C(=O)NCCO)OC3C1O2 (stereo not shown) [compound 68] | 25 µg/mL (≈ 106 µM) | 25 µg/mL (≈ 106 µM) | 200 µg/mL (≈ 847 µM) | 100 µg/mL (≈ 423 µM) | 25 µg/mL (≈ 106 µM) | 200 µg/mL (≈ 847 µM) | > 200 µg/mL | 12.5 µg/mL (≈ 52.9 µM) | 6.25 µg/mL (≈ 26.5 µM) | 6.25 µg/mL (≈ 26.5 µM) | 6.25 µg/mL (≈ 26.5 µM) | 100 µg/mL (≈ 423 µM) | 100 µg/mL (≈ 423 µM) | > 200 µg/mL | 200 µg/mL (≈ 847 µM) | > 200 µg/mL | 3.13 µg/mL (≈ 13.2 µM) | > 200 µg/mL | > 200 µg/mL | 100 µg/mL (≈ 423 µM) | MIC [18]: 200 µg/mL (≈ 847 µM); MIC [19]: 6.25 µg/mL (≈ 26.5 µM); MIC [20]: 6.25 µg/mL (≈ 26.5 µM); MIC (Proteus vulgaris OX-19): 12.5 µg/mL (≈ 52.9 µM); MIC [21]: 25 µg/mL (≈ 106 µM); MIC [22]: 25 µg/mL (≈ 106 µM); MIC [23]: 6.25 µg/mL (≈ 26.5 µM); MIC [24]: 200 µg/mL (≈ 847 µM); MIC [25]: 12.5 µg/mL (≈ 52.9 µM)
